Reference: US20110039770A1, “INHIBITORS OF PROTEIN KINASE C ISOFORMS AND USES THEREOF” (PHARMAGAP INC., priority 2005, published 2011)
Where a SMILES comes first, the peptide text is derived from it. The star is where a group is joined. PNA(A) = NCCN(CC(=O)*)C(=O)Cn1cnc2c(N)ncnc21

How the values were obtained:
Experiment in all cases: PKC isoform protein levels in cancer cell lines after TIM 10 (Western blot)
Type in all cases: cell-based
Parameters in all cases: endogenous in cells
Conditions in all cases: 5 mM by pinocytic influx, 24 hrs
PKC epsilon = biological target: T1, PKC epsilon (Homo sapiens, UniProt Q02156)
T1 sequence (Q02156 1-737): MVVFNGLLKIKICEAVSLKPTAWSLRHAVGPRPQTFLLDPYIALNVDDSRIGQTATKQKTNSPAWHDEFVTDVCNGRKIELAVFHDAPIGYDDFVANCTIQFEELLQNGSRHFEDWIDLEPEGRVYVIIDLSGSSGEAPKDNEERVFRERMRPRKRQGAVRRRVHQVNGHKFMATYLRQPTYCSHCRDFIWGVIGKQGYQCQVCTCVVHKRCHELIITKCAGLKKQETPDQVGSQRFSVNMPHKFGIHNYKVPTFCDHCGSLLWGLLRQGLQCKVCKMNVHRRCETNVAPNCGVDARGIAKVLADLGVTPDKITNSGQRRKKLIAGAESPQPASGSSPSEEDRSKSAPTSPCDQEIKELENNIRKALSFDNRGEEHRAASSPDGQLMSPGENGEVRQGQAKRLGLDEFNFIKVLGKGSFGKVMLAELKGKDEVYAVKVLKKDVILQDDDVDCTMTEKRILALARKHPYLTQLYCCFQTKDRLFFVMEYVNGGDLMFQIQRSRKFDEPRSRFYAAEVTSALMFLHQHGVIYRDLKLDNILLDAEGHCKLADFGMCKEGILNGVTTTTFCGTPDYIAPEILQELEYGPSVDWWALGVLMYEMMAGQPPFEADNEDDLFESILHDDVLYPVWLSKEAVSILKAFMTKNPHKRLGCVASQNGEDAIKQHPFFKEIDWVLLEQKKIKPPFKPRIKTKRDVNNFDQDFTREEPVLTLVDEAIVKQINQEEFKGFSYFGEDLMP
Experimental: (§1) The effect of compound TIM 10 on the levels of protein for various PKC isoforms was assessed as generally described below in the following human cancer cell lines: MDA MB-231 breast adenocarcinoma cells (ATCC HTB-26); T24 bladder transitional cell carcinoma (ATCC HTB-4); SKOV-3 ovary adenocarcinoma (ATCC HTB-77); MCF-7 breast adenocarcinoma (ATCC HTB-22); Capan-2 pancreatic adenocarcinoma (ATCC HTB-80); NCI-H661 NSCL large cells (ATCC HTB-183); Calu-6 probable lung anaplastic carcinoma (ATCC HTB-56) and Calu-3 lung adenocarcinoma (ATCC HTB-55).
(§2) Cells representative of the different cancer types were cultured according to ATCC instructions. At subconfluence, the cells were trypsinized and compound 10 (5 mM) was incorporated into the cells by pinocytic influx endocytosis according to the manufacturer's instructions (Molecular Probe). Matching controls were treated accordingly except that vehicle was incorporated instead of compound 10. Following pinocytic influx, the cells were seeded and allowed to grow in fresh medium for 24 hrs. The cell cultures were further extracted using RIPA lysis buffer according to standard protocol. The protein content of each lysate was measured using Bradford protein estimation procedure (BioRad) and normalized. Following addition of sample buffer, the proteins from 15 μl of each extract were separated by electrophoresis, electro-transferred to nitrocellulose membranes and the various isoforms of PKC were detected using appropriate antibodies (Santa Cruz Biotechnology, Inc., CA). The relative intensity of bands of the expected molecular weight was estimated after scanning and the % decrease in the band intensity relative to control was calculated.

PKC zeta = biological target: T2, PKC zeta (Homo sapiens, UniProt Q05513)
T2 sequence (Q05513 1-592): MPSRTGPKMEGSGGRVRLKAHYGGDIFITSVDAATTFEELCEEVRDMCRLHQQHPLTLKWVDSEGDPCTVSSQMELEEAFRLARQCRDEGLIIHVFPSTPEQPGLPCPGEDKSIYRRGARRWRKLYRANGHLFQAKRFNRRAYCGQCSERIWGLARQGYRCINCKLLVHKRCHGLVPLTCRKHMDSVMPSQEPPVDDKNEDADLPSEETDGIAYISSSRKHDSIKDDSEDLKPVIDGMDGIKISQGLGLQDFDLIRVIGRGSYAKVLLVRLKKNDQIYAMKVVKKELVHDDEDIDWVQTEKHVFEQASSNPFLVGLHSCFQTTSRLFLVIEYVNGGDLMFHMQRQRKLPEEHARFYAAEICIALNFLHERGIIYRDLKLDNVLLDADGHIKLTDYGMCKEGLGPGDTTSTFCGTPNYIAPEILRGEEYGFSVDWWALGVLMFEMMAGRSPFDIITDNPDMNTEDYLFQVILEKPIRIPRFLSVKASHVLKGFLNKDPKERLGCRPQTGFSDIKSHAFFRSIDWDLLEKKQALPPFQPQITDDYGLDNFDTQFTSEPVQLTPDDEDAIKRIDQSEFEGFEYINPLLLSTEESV
Experimental: as §1, §2

PKC delta = PKC delta (Homo sapiens, UniProt Q05655)
PKC delta, sequence (Q05655 whole entry): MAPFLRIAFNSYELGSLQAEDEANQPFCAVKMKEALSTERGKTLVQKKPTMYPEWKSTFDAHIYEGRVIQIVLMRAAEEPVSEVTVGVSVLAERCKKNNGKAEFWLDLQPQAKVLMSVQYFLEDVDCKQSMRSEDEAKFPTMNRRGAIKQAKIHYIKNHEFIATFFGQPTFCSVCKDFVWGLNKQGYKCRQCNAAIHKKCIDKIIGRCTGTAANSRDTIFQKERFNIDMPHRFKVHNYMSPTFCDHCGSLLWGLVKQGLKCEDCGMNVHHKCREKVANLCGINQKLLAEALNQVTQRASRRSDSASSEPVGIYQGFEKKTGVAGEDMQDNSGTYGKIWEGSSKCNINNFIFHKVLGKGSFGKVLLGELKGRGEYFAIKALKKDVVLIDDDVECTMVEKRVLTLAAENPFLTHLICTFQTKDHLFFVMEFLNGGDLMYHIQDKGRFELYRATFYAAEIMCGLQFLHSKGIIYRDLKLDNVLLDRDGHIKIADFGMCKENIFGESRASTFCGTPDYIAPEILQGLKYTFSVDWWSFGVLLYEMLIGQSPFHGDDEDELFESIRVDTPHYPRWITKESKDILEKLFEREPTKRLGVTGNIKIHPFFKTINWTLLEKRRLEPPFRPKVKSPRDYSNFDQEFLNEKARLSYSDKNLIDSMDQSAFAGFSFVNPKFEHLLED
Experimental: as §1, §2

PKC beta 1 = PKC beta 1 (Homo sapiens, UniProt P05771)
PKC beta 1, sequence (P05771 whole entry): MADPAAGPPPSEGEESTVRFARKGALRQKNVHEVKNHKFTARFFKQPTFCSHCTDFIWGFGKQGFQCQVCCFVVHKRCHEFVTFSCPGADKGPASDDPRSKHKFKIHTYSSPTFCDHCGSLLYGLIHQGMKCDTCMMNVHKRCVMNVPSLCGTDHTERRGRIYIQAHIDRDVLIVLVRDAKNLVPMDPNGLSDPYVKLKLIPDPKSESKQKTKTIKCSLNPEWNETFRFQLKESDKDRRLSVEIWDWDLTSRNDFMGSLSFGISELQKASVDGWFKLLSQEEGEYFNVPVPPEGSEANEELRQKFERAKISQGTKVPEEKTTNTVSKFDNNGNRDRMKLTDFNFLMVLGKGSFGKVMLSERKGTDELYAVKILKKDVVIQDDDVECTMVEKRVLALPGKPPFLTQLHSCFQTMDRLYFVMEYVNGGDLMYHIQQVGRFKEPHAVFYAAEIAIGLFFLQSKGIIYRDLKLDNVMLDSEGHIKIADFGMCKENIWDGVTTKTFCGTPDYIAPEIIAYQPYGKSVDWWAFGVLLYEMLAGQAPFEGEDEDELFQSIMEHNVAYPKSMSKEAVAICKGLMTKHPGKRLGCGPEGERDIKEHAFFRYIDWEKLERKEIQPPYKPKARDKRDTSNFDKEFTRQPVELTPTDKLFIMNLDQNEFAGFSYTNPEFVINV
Experimental: as §1, §2

SMILES: CC[C@H](C)[C@H](NC(=O)[C@H](CO)NC(=O)[C@@H](NC(=O)CNC(=O)[C@@H](NC(=O)[C@H](CC(C)C)NC(=O)[C@H](CC(N)=O)NC(=O)[C@H](CCC(N)=O)NC(=O)[C@H](C)NC(=O)[C@H](CC(=O)O)NC(=O)[C@H](CCCCN)NC(=O)CNC(=O)CNC(=O)CNC(=O)CNC(=O)CNC(=O)CNC(=O)CNC(=O)[C@H](CC(C)C)NC(=O)[C@H](CCCNC(=N)N)NC(=O)[C@H](Cc1ccccc1)NC(=O)[C@H](CCCCNC(=O)CN(CCN)C(=O)Cn1cnc2c(N)ncnc21)NC(=O)[C@H](CCCNC(=N)N)NC(=O)[C@H](CCCNC(=N)N)NC(=O)[C@H](Cc1ccccc1)NC(C)=O)[C@@H](C)CC)[C@@H](C)CC)C(N)=O [TIM 10] (Ac-FRRK(PNA(A))FRLGGGGGGGKDAQNLIGISI-NH2)
- % decrease PKC-ε band intensity relative to control (PKC epsilon; Capan-2): 0.0%
- % decrease PKC-ε band intensity relative to control (PKC epsilon; MCF-7): 0.0%
- % decrease PKC-ε band intensity relative to control (PKC epsilon; MDA-MB231): 0.0%
- % decrease PKC-ζ band intensity relative to control (PKC zeta; Capan-2): 0.0%
- % decrease PKC-ζ band intensity relative to control, Band 1 (PKC zeta; H661, Band 1): 13.4%
- % decrease PKC-ζ band intensity relative to control, Band 2 (PKC zeta; H661, Band 2): 0.0%
- % decrease PKC-ζ band intensity relative to control (PKC zeta; MCF-7): 7.3%
- % decrease PKC-ζ band intensity relative to control (PKC zeta; MDA-MB231): 0.0%
- % decrease PKC-ζ band intensity relative to control (PKC zeta; T24): 0.0%
- % decrease PKC-δ band intensity relative to control (PKC delta; Calu-3): 22.2%
- % decrease PKC-δ band intensity relative to control (PKC delta; Calu-6): 18.9%
- % decrease PKC-δ band intensity relative to control (PKC delta; Capan-2): 53.3%
- % decrease PKC-δ band intensity relative to control (PKC delta; H661): 0.0%
- % decrease PKC-δ band intensity relative to control (PKC delta; MCF-7): 21.5%
- % decrease PKC-δ band intensity relative to control (PKC delta; MDA-MB231): 36.6%
- % decrease PKC-δ band intensity relative to control (PKC delta; SK-OV-3): 0.0%
- % decrease PKC-δ band intensity relative to control (PKC delta; T24): 62.2%
- % decrease PKC-βI band intensity relative to control (PKC beta 1; Capan-2): 17.5%
- % decrease PKC-βI band intensity relative to control (PKC beta 1; H661): 3.0%
- % decrease PKC-βI band intensity relative to control (PKC beta 1; MCF-7): 0.0%
- % decrease PKC-βI band intensity relative to control (PKC beta 1; MDA-MB231): 0.0%
